# Experimental data: patent publication US9221796B2, “Selective NR2B antagonists” (BRISTOL-MYERS SQUIBB COMPANY, priority 2014, dated 2015)
# Tested on: mice
# Experiment: Mouse Forced Swim Test (mFST)
# Type: in vivo
# Settings: 1 mg/Kg i.v., 15 min before swim session, 6 min test
# Protocol: Mouse Forced Swim Test (mFST).
# Forced Swim Test (FST) is an animal model used to assess antidepressant compounds in preclinical studies. The FST was performed similar to the method of Porsolt et al. with modifications (Porsolt R D, Bertin A, Jalfre M. Behavioral despair in mice: a primary screening test for antidepressants. Arch Int Pharmacodyn Thér 1977; 229:327-36). In this paradigm, mice are forced to swim in an inescapable cylinder filled with water. Under these conditions, mice will initially try to escape and eventually develop immobility behavior; this behavior is interpreted as a passive stress-coping strategy or depression-like behavior. […] The duration of immobility was evaluated during the total 6 min of the test and expressed as duration (sec) of immobility. […] All testing sessions were recorded with a video camera (Sony Handicam, Model: DCR—HC38E; PAL) and scoring was done using the Forced Swim Scan, Version 2.0 software (Clever Systems Inc., Reston, Va., USA; see Hayashi E, Shimamura M, Kuratani K, Kinoshita M, Hara H. Automated experimental system capturing three behavioral components during murine forced swim test. Life Sci. 2011 Feb. 28; 88(9-10):411-7 and Yuan P, Tragon T, Xia M, Leclair C A, Skoumbourdis A P, Zheng W, Thomas C J, Huang R, Austin C P, Chen G, Guitart X. Phosphodiesterase 4 inhibitors enhance […] in rodents. […]
structure (smiles),measurement,value
"Cc1ccc(CN2CC[C@@H](N3CC[C@@H](c4ccc(O)cc4)[C@H](F)C3)C2=O)cc1 [Example 46, P-4, (R)-3-((3S,4S)-3-fluoro-4-(4-hydroxyphenyl)piperidin-1-yl)-1-(4-methylbenzyl)pyrrolidin-2-one]",immobility time,statistically significant decrease in immobility time
